The record followed here is ChEMBL document CHEMBL5537135, “Novel antimicrobial peptides modified with fluorinated sulfono-γ-AA having high stability and targeting multidrug-resistant bacteria infections” (Eur J Med Chem, 2024).

A short description of data set [1]: Toxicity in mouse assessed as sluggish behavior at 20 mg/kg, ip measured for 30 to 60 mins. Type of data set: organism-based. The note with it: in vivo, time 30-60 min.
Data set [2] relates to Pseudomonas aeruginosa. As to the kind of experiment: Antimicrobial activity against multidrug-resistant Pseudomonas aeruginosa 124 assessed as inhibition of visible bacterial growth incubated for 18 hrs by broth-dilution method. In kind it is functional.
Data set [3] concerns Staphylococcus aureus. In words: Drug resistance, ratio of MIC for methicillin-resistant Staphylococcus aureus ATCC 33591 after 20 days exposure to MIC for methicillin-resistant Staphylococcus aureus ATCC 33591 during first exposure. Type of data set: functional, organism-based. The note with it: time 20.0 day.
The subject of data set [4] is Staphylococcus aureus. As to the kind of experiment: Antimicrobial activity against methicillin-resistant Staphylococcus aureus 10 assessed as inhibition of visible bacterial growth incubated for 18 hrs by broth-dilution method. In kind it is functional.
The subject of data set [5] is Staphylococcus epidermidis. As to the kind of experiment: Antimicrobial activity against Staphylococcus epidermidis ATCC 12228 assessed as inhibition of visible bacterial growth incubated for 18 hrs by broth-dilution method. In kind it is functional.
Data set [6] relates to Pseudomonas aeruginosa. In words: Antibacterial activity against Pseudomonas aeruginosa ATCC 27853 infected in C57BL/6 mouse pneumonia model assessed as log reduction in bacterial load in lung at 5 mg/kg, ip administered for 1 to 48 hrs and measured after 3 days. In kind it is functional. Conditions: time 1-120 hrs.
Data set [7] deals with Pseudomonas aeruginosa. As to the kind of experiment: Antimicrobial activity against multidrug-resistant Pseudomonas aeruginosa 156 assessed as inhibition of visible bacterial growth incubated for 18 hrs by broth-dilution method. In kind it is functional.
Data set [8] concerns Staphylococcus aureus. In words: Antimicrobial activity against methicillin-resistant Staphylococcus aureus 2 assessed as inhibition of visible bacterial growth incubated for 18 hrs by broth-dilution method. In kind it is functional.
Data set [9] concerns Staphylococcus aureus. As to the kind of experiment: Antimicrobial activity against methicillin-resistant Staphylococcus aureus 4 assessed as inhibition of visible bacterial growth incubated for 18 hrs by broth-dilution method. In kind it is functional.
Data set [10] concerns Staphylococcus aureus. In words: Antimicrobial activity against methicillin-resistant Staphylococcus aureus 3 assessed as inhibition of visible bacterial growth incubated for 18 hrs by broth-dilution method. Type of data set: functional.
Data set [11] concerns Staphylococcus aureus. In words: Antimicrobial activity against Staphylococcus aureus ATCC 25923 assessed as inhibition of visible bacterial growth incubated for 18 hrs by broth-dilution method. Type of data set: functional.
The test system of data set [12] is Staphylococcus aureus. In words: Antimicrobial activity against methicillin-resistant Staphylococcus aureus ATCC 33591 assessed as inhibition of visible bacterial growth incubated for 18 hrs by broth-dilution method. In kind it is functional.
In data set [13] the test system is Pseudomonas aeruginosa. In words: Bactericidal activity against Pseudomonas aeruginosa ATCC 27853 assessed as reduction in viable bacteria at 4 times MIC measured for 30 min by time-kill assay. Type of data set: functional, organism-based.
In data set [14] the test system is Pseudomonas aeruginosa. As to the kind of experiment: Antimicrobial activity against multidrug-resistant Pseudomonas aeruginosa 073 assessed as inhibition of visible bacterial growth incubated for 18 hrs by broth-dilution method. In kind it is functional.
Data set [15] deals with Pseudomonas aeruginosa. In words: Antimicrobial activity against multidrug-resistant Pseudomonas aeruginosa 119 assessed as inhibition of visible bacterial growth incubated for 18 hrs by broth-dilution method. Type of data set: functional.
Data set [16] has as its system Pseudomonas aeruginosa. As to the kind of experiment: Antimicrobial activity against multidrug-resistant Pseudomonas aeruginosa 157 assessed as inhibition of visible bacterial growth incubated for 18 hrs by broth-dilution method. In kind it is functional.
For data set [17], the system named is Acinetobacter baumannii. In words: Antimicrobial activity against Acinetobacter baumannii ATCC 19606 assessed as inhibition of visible bacterial growth incubated for 18 hrs by broth-dilution method. In kind it is functional.
Data set [18] has as its system Escherichia coli. In words: Antimicrobial activity against Escherichia coli ATCC 25922 assessed as inhibition of visible bacterial growth incubated for 18 hrs by broth-dilution method. Type of data set: functional.
Data set [19] concerns Pseudomonas aeruginosa. As to the kind of experiment: Antibacterial activity against Pseudomonas aeruginosa ATCC 27853 infected in C57BL/6 mouse pneumonia model assessed as […] at 5 mg/kg, ip administered for 1 to 48 hrs and measured after 3 days by H and E staining based analysis. Type of data set: functional, organism-based. The note with it: time 1-120 hrs.
The test system of data set [20] is Staphylococcus aureus. As to the kind of experiment: Antimicrobial activity against methicillin-resistant Staphylococcus aureus 7 assessed as inhibition of visible bacterial growth incubated for 18 hrs by broth-dilution method. In kind it is functional.
Data set [21] relates to Staphylococcus aureus. As to the kind of experiment: Antimicrobial activity against methicillin-resistant Staphylococcus aureus 6 assessed as inhibition of visible bacterial growth incubated for 18 hrs by broth-dilution method. Type of data set: functional.
In data set [22] the test system is Cell membrane. As to the kind of experiment: Induction of membrane depolarization in Pseudomonas aeruginosa ATCC 27853 assessed as increase in fluorescence intensity at 4 times MIC by DiSC35 dye-based fluorescence assay. Type of data set: cell membranes.
Data set [23] concerns Pseudomonas aeruginosa. As to the kind of experiment: Antimicrobial activity against multidrug-resistant Pseudomonas aeruginosa 085 assessed as inhibition of visible bacterial growth incubated for 18 hrs by broth-dilution method. Type of data set: functional.
The subject of data set [24] is Staphylococcus aureus. As to the kind of experiment: Antimicrobial activity against methicillin-resistant Staphylococcus aureus 5 assessed as inhibition of visible bacterial growth incubated for 18 hrs by broth-dilution method. Type of data set: functional.
Data set [25] deals with Pseudomonas aeruginosa. As to the kind of experiment: Antimicrobial activity against multidrug-resistant Pseudomonas aeruginosa 061 assessed as inhibition of visible bacterial growth incubated for 18 hrs by broth-dilution method. In kind it is functional.
For data set [26], the system named is Pseudomonas aeruginosa. In words: Antimicrobial activity against Pseudomonas aeruginosa ATCC 27853 assessed as inhibition of visible bacterial growth incubated for 18 hrs by broth-dilution method. In kind it is functional.
Data set [27] relates to Pseudomonas aeruginosa. In words: Antimicrobial activity against multidrug-resistant Pseudomonas aeruginosa 125 assessed as inhibition of visible bacterial growth incubated for 18 hrs by broth-dilution method. In kind it is functional.
Data set [28] concerns Staphylococcus aureus. In words: Antimicrobial activity against methicillin-resistant Staphylococcus aureus 1 assessed as inhibition of visible bacterial growth incubated for 18 hrs by broth-dilution method. Type of data set: functional.
The subject of data set [29] is Salmonella typhimurium. In words: Antimicrobial activity against Salmonella typhimurium ATCC 14028 assessed as inhibition of visible bacterial growth incubated for 18 hrs by broth-dilution method. Type of data set: functional. Conditions: Salmonella enterica subsp. enterica serovar Typhimurium.
The subject of data set [30] is Staphylococcus aureus. As to the kind of experiment: Antimicrobial activity against methicillin-resistant Staphylococcus aureus 8 assessed as inhibition of visible bacterial growth incubated for 18 hrs by broth-dilution method. In kind it is functional.
Data set [31] deals with Pseudomonas aeruginosa. As to the kind of experiment: Antimicrobial activity against multidrug-resistant Pseudomonas aeruginosa 516 assessed as inhibition of visible bacterial growth incubated for 18 hrs by broth-dilution method. In kind it is functional.
Data set [32] concerns Staphylococcus aureus. In words: Antimicrobial activity against methicillin-resistant Staphylococcus aureus 9 assessed as inhibition of visible bacterial growth incubated for 18 hrs by broth-dilution method. In kind it is functional.
In data set [33] the test system is Cell membrane. In words: Induction of cytoplasmic membrane depolarization in methicillin-resistant Staphylococcus aureus ATCC 33591 assessed as increase in fluorescence intensity at 4 times MIC by DiSC35 dye-based fluorescence assay.
Data set [34] has as its system Bacillus subtilis. In words: Antimicrobial activity against Bacillus subtilis ATCC 23857 assessed as inhibition of visible bacterial growth incubated for 18 hrs by broth-dilution method. Type of data set: functional.
Data set [35] concerns Pseudomonas aeruginosa. As to the kind of experiment: Antimicrobial activity against multidrug-resistant Pseudomonas aeruginosa 050 assessed as inhibition of visible bacterial growth incubated for 18 hrs by broth-dilution method. Type of data set: functional.

Calls of active or inactive are those of the source. The rule behind the calls is not given here.

As to POLYMYXIN B [listing 1 of 2 here], the Activity entry in [1] was “Toxic”.
The term MIC denotes the lowest concentration found to suppress growth. POLYMYXIN B [listing 2 of 2 here]: the MIC came out at 1 µg/mL in [2]; 16 µg/mL in [4]; 8 µg/mL in data set [5]; 256 µg/mL in [7]; 8 µg/mL in [8]; 16 µg/mL in data set [9]. Further, the minimal inhibitory concentration (MIC) worked out at 8 µg/mL in [10]; 8 µg/mL in [11]; 16 µg/mL in data set [12]; 1 µg/mL in data set [14]; 1 µg/mL in data set [15]; 1 µg/mL in data set [16]. The MIC in data set [17] was found to be 4 µg/mL; in data set [18], 1 µg/mL; in [20] it was 16 µg/mL; in data set [21], 8 µg/mL; in [23] it was 1 µg/mL; in data set [24], 16 µg/mL. Moreover, the MIC turned out to be 1 µg/mL in data set [25]; 1 µg/mL in data set [26]; 1 µg/mL in [27]; 8 µg/mL in data set [28]; 2 µg/mL in data set [29]; 16 µg/mL in data set [30]. For the same sequence, the MIC was 1 µg/mL in [31], 16 µg/mL in data set [32], 8 µg/mL in data set [34] and 1 µg/mL in data set [35]. For the same sequence, in data set [3], the Ratio is 8. In addition, the log(activity) in [6] worked out at 4.54. Further, the outcome in data set [13] was Active. The outcome in data set [19], in data set [22] and in [33] was inactive.
